Test results published in PMC2360237, “A phase Ib study of pertuzumab, a recombinant humanised antibody to HER2, and docetaxel in patients with advanced solid tumours” (British Journal of Cancer, 2007).
Read-outs that look alike come from different tables or passages of the source.

Columns and labels:
[1] = system: patients with advanced solid tumours
Description: This was a phase Ib, open-label, two-center study. […] Pertuzumab was provided by F Hoffmann-La Roche (Basel, Switzerland). Each 10 ml single-use vial contained 175 mg of pertuzumab formulated in 10 mmol l^−1 L-histidine (pH6.0), 240 mmol l^−1 sucrose, and 0.02% polysorbate 20. The first dose of pertuzumab was given by intravenous infusion over 90 min. […] Initially, the planned dose of pertuzumab was fixed dose at 1050 mg for each dose level. […] The dose of docetaxel was sequentially escalated from 60 to 75 to 100 mg m^−2 as outlined in Table 1. […] Initially, three patients were treated in cohort 1, with the first patient being monitored for at least 2 weeks before additional patients were treated. Escalation to a new dose level was permitted when at least two of three patients had been evaluated for 3 weeks. […] At least six patients were to be treated at the 75 and 100 mg m^−2 dose levels before a recommended phase II dose was declared. […]
The incidence and severity of all adverse events, changes in vital signs, laboratory assessments, physical examination findings, and medical conditions during and after treatment with pertuzumab were assessed at least weekly during the first two cycles, and at least weekly three times thereafter, and graded according to NCI-CTC Version 3. […]

[2] = Docetaxel plasma pharmacokinetics (LC-MS/MS, non-compartmental) alone and with pertuzumab in phase Ib patients; assay type: in vivo, human; details: for AUC(0-inf) / Cmax / half-life: human, plasma, intravenous; for AUC(0-inf): read-out: AUC0-∞ mean (range); for Cmax: read-out: Cmax mean (range); for half-life: read-out: t1/2 mean (range) (converted)
Description: (§1) In the first treatment cycle, blood withdrawal for PK analysis was performed 15 and 30 min prior to administration of docetaxel and 15 and 30 min and 1, 2, 4, 8 and 23 h, post administration. Pertuzumab was administered at least 24 h after, on day 2, followed by PK analysis at 15 min and 1.5, 4 and 8 h. In the second cycle, pertuzumab was administered on day 1, immediately followed by the administration of docetaxel and sampling for PK analysis was repeated for both drugs. Plasma samples of docetaxel were analysed using a validated specific liquid chromatography-mass spectrometry (LC-MS/MS) method as described previously ([Agus et al, 2005]). Serum samples were assayed for pertuzumab concentrations using a receptor-binding, enzyme-linked immunosorbent assay. The assay uses immobilised antigen p185^HER2 ECD to capture pertuzumab from serum samples. Bound pertuzumab was detected with mouse anti-human Fc-horseradish peroxidase (Jackson ImmunoResearch Laboratories Inc., West Grove, PA, USA), and tetramethyl benzidine (KPL Inc., Gaithersburg, MD, USA) used as the substrate for colour development to quantify serum pertuzumab against a known standard curve. The assay has a minimum quantifiable concentration of 0.25 μg ml^−1 for pertuzumab in human serum. Pharmacokinetic parameters for docetaxel and pertuzumab were estimated using non-compartmental methods (WinNonLin software version 5.0.1).

[3] = Pertuzumab serum pharmacokinetics (receptor-binding ELISA, non-compartmental) in phase Ib patients; details: for AUC0-last mean (range) / AUC0-∞ mean (range) / Cl mean (range) / Cmax mean (range) / Vss mean (range): serum
Description: as §1

[4] = system: refractory ovarian cancer; HRPC; details: cited from earlier work
[5] = system: patients with advanced cancer; details: cited from earlier work
[6] = Cohort 1, docetaxel 60 mg m^−2 + pertuzumab 1050 mg, cycle 2, n=6, plasma
[7] = Cohort 1, docetaxel 60 mg m^−2 alone, cycle 1, n=6, plasma
[8] = Cohort 2A, docetaxel 75 mg m^−2 + pertuzumab 420 mg, cycle 2, n=6, plasma
[9] = Cohort 2A, docetaxel 75 mg m^−2 alone, cycle 1, n=6, plasma
[10] = Cohort 3A, docetaxel 100 mg m^−2 + pertuzumab 420 mg, cycle 2, n=4, plasma
[11] = Cohort 3A, docetaxel 100 mg m^−2 alone, cycle 1, n=5, plasma
[12] = 60 mg m^−2, Cohort 1, docetaxel 60 mg m^−2 alone, cycle 1, n=6, plasma
[13] = 75 mg, Cohort 2A, docetaxel 75 mg m^−2 alone, cycle 1, n=6, plasma
[14] = 100 mg, Cohort 3A, docetaxel 100 mg m^−2 alone, cycle 1, n=5, plasma
[15] = pertuzumab 420 mg, cycle 2, n=10, in combination with docetaxel
[16] = pertuzumab 840 mg (loading dose), cycle 1, n=11, in combination with docetaxel
[17] = pertuzumab 1050 mg, cycle 1, n=8, in combination with docetaxel
[18] = pertuzumab 1050 mg, cycle 2, n=7, in combination with docetaxel

CC(=O)O[C@@]12CO[C@@H]1C[C@H](O)[C@@]1(C)C(=O)[C@H](O)C3=C(C)[C@@H](OC(=O)[C@H](O)[C@@H](NC(=O)OC(C)(C)C)c4ccccc4)C[C@@](O)([C@@H](OC(=O)c4ccccc4)[C@H]21)C3(C)C [docetaxel, Docetaxel]
Recommended phase II dose of docetaxel in the combination ([1]; with pertuzumab 420 mg following a loading dose of 840 mg, intravenously every 3 weeks): 75 mg m^−2 | Cl mean (range) [2, 6]: 36 (23–40) × 10^3 ml h m^−2 | Vss mean (range) [2, 6]: 102 (64–154) × 10^4 ml m^−2 | Cl mean (range) [2, 7]: 33 (28–39) × 10^3 ml h m^−2 | Vss mean (range) [2, 7]: 79 (42–100) × 10^4 ml m^−2 | Cl mean (range) [2, 8]: 24 (15–34) × 10^3 ml h m^−2 | Vss mean (range) [2, 8]: 57 (20–110) × 10^4 ml m^−2 | Cl mean (range) [2, 9]: 22 (13–31) × 10^3 ml h m^−2 | Vss mean (range) [2, 9]: 41 (18–70) × 10^4 ml m^−2 | Cl mean (range) [2, 10]: 22 (12–41) × 10^3 ml h m^−2 | Vss mean (range) [2, 10]: 43 (16–76) × 10^4 ml m^−2 | Cl mean (range) [2, 11]: 18 (12–28) × 10^3 ml h m^−2 | Vss mean (range) [2, 11]: 25 (16–32) × 10^4 ml m^−2 | Pharmacokinetic drug–drug interaction (Cmax, AUC and clearance of docetaxel alone vs in combination with pertuzumab) ([2]; cycle 1 alone vs cycle 2 combined): no drug–drug interaction | AUC(0-inf) [2, 12]: 1840 ng·h/mL | Cmax [2, 12]: 1640 ng/mL | half-life [2, 12]: 16.9 h | AUC(0-inf) [2, 13]: 3740 ng·h/mL | Cmax [2, 13]: 3130 ng/mL | half-life [2, 13]: 12.7 h | AUC(0-inf) [2, 14]: 5930 ng·h/mL | Cmax [2, 14]: 5450 ng/mL | half-life [2, 14]: 9.59 h | AUC(0-inf) [2, 6]: 1730 ng·h/mL | Cmax [2, 6]: 1700 ng/mL | half-life [2, 6]: 19.7 h | AUC(0-inf) [2, 8]: 3500 ng·h/mL | Cmax [2, 8]: 2720 ng/mL | half-life [2, 8]: 15.2 h | AUC(0-inf) [2, 10]: 5220 ng·h/mL | Cmax [2, 10]: 4700 ng/mL | half-life [2, 10]: 12.8 h

pertuzumab: fully humanised monoclonal antibody, which acts by blocking the association of HER2 with other HER family members
PK parameters of pertuzumab in the presence of docetaxel compared with single agent ([3]; 1050 mg cycles 1 and 2, 840 mg cycle 1 and 420 mg cycle 2): comparable with single agent values | AUC0-last mean (range) [3, 15]: 1491 (914–2289) μg day ml^−1 | AUC0-∞ mean (range) [3, 15]: 2762 (1639–3827) μg day ml^−1 | Cl mean (range) [3, 15]: 169 (110–256) ml per day | Cmax mean (range) [3, 15]: 150 (102–233) μg ml^−1 | Vss mean (range) [3, 15]: 4233 (2823–7058) ml | AUC0-last mean (range) [3, 16]: 1749 (1214–3083) μg day ml^−1 | AUC0-∞ mean (range) [3, 16]: 2796 (1604–5116) μg day ml^−1 | Cl mean (range) [3, 16]: 329 (164–524) ml per day | Cmax mean (range) [3, 16]: 255 (169–447) μg ml^−1 | AUC0-last mean (range) [3, 17]: 2390 (1733–3355) μg day ml^−1 | AUC0-∞ mean (range) [3, 17]: 3951 (2348–4980) μg day ml^−1 | Cl mean (range) [3, 17]: 282 (211–447) ml per day | Cmax mean (range) [3, 17]: 301 (143–394) μg ml^−1 | Vss mean (range) [3, 17]: 5214 (2975–7036) ml | AUC0-last mean (range) [3, 18]: 3500 (3010–4346) μg day ml^−1 | AUC0-∞ mean (range) [3, 18]: 6856 (4521–11426) μg day ml^−1 | Cmax mean (range) [3, 18]: 368 (253–463) μg ml^−1 | Vss mean (range) [3, 18]: 4672 (3023–6580) ml | Recommended phase II dose of pertuzumab in the combination ([1]; in vivo, iv): 420 mg | Anti-tumour activity ([4]; single-agent pertuzumab, refractory ovarian cancer, ref Gordon et al, 2006): Significant anti-tumour activity | Anti-tumour activity ([4]; single-agent phase II study, HRPC, ref De Bono et al, 2007): no evidence of anti-tumour activity | Terminal elimination half-life ([5]; in vivo): 2–4 weeks | Tolerability ([5]; in vivo): well tolerated | Maximum tolerated dose ([5]; single-agent pertuzumab, phase I studies, not reached, ref Agus et al, 2005): > 15 mg/kg
